Source: the supplement of paper PMC10307832

Assays:
Assay in all cases: relative viability (nuclei count vs DMSO), 5 days (fraction); higher = more cells survive
Lapatinib = compound: CS(=O)(=O)CCNCc1ccc(-c2ccc3ncnc(Nc4ccc(OCc5cccc(F)c5)c(Cl)c4)c3c2)o1 [Lapatinib]
Summary of the method: (§1)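 On vehicle-anchored 1536-well plates, lung cancer cell lines held overnight at 37 °C were pinned with five library-drug doses (not always all listed) spaced by √10. With no medium change over 5 days, they were then fixed, permeabilised and Hoechst-stained in one step and imaged at 4×. MetaXpress counted nuclei, and viability is the median across plates of treated-well over vehicle-well nuclei. Acceptance needed control CV below 25% and at least one doubling.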

Wnt-C59 = compound: CC1=NC=CC(=C1)C2=CC=C(C=C2)CC(=O)NC3=CC=C(C=C3)C4=CN=CC=C4 [Wnt-C59]
Summary of the method: as §1

Lapatinib + Vorinostat = compound: CS(=O)(=O)CCNCc1ccc(-c2ccc3ncnc(Nc4ccc(OCc5cccc(F)c5)c(Cl)c4)c3c2)o1 [Lapatinib] + O=C(CCCCCCC(=O)Nc1ccccc1)NO [Vorinostat] (partner 1 µM)
Summary of the method: (§2)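 Each reported value is a median over duplicate plates. It expresses relative viability: treated-well nuclei count divided by vehicle-well nuclei count. Lung cancer cell lines in 1536-well plates were dosed by pin tool a day after seeding, alone with one drug or with a fixed anchor-drug dose plus five library-drug doses (not always all listed) in √10 steps, and nuclei were counted after 5 days.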

Wnt-C59 + Lapatinib = compound: CC1=NC=CC(=C1)C2=CC=C(C=C2)CC(=O)NC3=CC=C(C=C3)C4=CN=CC=C4 [Wnt-C59] + CS(=O)(=O)CCNCc1ccc(-c2ccc3ncnc(Nc4ccc(OCc5cccc(F)c5)c(Cl)c4)c3c2)o1 [Lapatinib] (partner 2 µM)
Summary of the method: as §2

Cell Line	relative viability (Lapatinib; 0.02 µM)	relative viability (Lapatinib; 0.06325 µM)	relative viability (Lapatinib; 0.2 µM)	relative viability (Lapatinib; 0.6325 µM)	relative viability (Lapatinib; 2 µM)	relative viability (Lapatinib; 2 µM, anchor plate)	relative viability (Wnt-C59; 0.001 µM)	relative viability (Wnt-C59; 0.01 µM)	relative viability (Wnt-C59; 0.03162 µM)	relative viability (Wnt-C59; 0.1 µM)	relative viability (Lapatinib + Vorinostat; first compound 0.06325 µM)	relative viability (Lapatinib + Vorinostat; first compound 0.2 µM)	relative viability (Lapatinib + Vorinostat; first compound 0.6325 µM)	relative viability (Lapatinib + Vorinostat; first compound 2 µM)	relative viability (Wnt-C59 + Lapatinib; first compound 0.001 µM)	relative viability (Wnt-C59 + Lapatinib; first compound 0.01 µM)	relative viability (Wnt-C59 + Lapatinib; first compound 0.03162 µM)	relative viability (Wnt-C59 + Lapatinib; first compound 0.1 µM)	relative viability (Lapatinib + Vorinostat; first compound 0.02 µM)
SW 1573	0.952	0.896	0.992	1.06	0.896	1.12	1.02	0.967	1.1	0.91	0.612	0.987	0.828	0.774	1.06	0.906	1.05	1.12	
NCI-H2228	0.902	0.857	0.823	1.04	0.863	1.14	1.01	0.819	0.891	0.868	0.7	0.907	0.517	0.48	1.3	1.07	0.801	0.874	0.774
HCC-366		1.02	0.981	1.02	0.99	1.02	0.993	0.997	1.06	0.976	0.275	0.391	0.352	0.202	1.16	0.999	1.07	0.976	
NCI-H520	0.987	0.93	1.03	1.09	0.998	0.848	1.1	0.95	0.901	1.07	0.684	0.707	0.671	0.76	0.809	0.894	0.878	0.827	0.7
ABC-1	0.721	0.793	0.939	1.04	0.912	1.18	0.938	1.01	1.01	0.952	1.02		1	1.18	1.1	1.18	1.14	1.19	0.929
HCC-44	0.602	0.997	0.983	1.03	0.893	1.02	1.04	0.972	0.979	1.04	1.11	1.16	1.16	0.916	1.01	1.03	1.01	1.03	1.07
NCI-H2023	0.796	0.744	0.926	0.998	0.823	0.862	0.948	1.03	1.15	0.801	0.402	0.603	0.612	0.552	0.715	0.93	1.17	0.666	
LOU-NH91	0.569	0.785	0.844	0.844	0.74	0.799	0.978	0.892	0.955	1.04	0.675	0.856	0.824	0.769	0.76	0.709	0.768	0.771	0.398
NCI-H727	0.839		1.11	0.778	0.776	0.796	1.01	0.854	0.867	0.931		1.17	1.45	1.02	0.891	0.761	0.787	0.966	1.17
LK-2	0.852		0.914	1.13	1.11	1.02	0.958	0.982	0.993	1.12		0.222	0.325	0.357	0.853	0.913	0.799	0.864	0.173
NCI-H322M	0.886	0.717	0.896	0.882	0.733	0.598	0.999	0.859	0.84	0.867	0.749	0.786	0.92	0.683	0.638	0.585	0.594	0.538	0.947
NCI-H650		0.912	0.919	1.04	0.831	0.926	0.886	0.952	1.03	0.974	0.38	0.434	0.577	0.538	0.532	0.846	0.895	0.873	
NCI-H596		0.939	0.967	1.14	0.919	1.03	0.93	0.936	1.12	1.06	0.538	0.606	0.711	0.537	1.07	1.1	1.2	1.13	
PC-3 [JPC-3]		1	0.991	0.977	0.755	0.46	1.04	1.06	1.05	1.14	0.804		0.637	0.495	0.465	0.459	0.447	0.496	
NCI-H1355		0.828	0.938	0.972	0.746	1	1.02	0.885	1.01	0.905	0.541	0.568	0.61	0.395	1.04	0.922	1.05	0.842	0.574
COR-L23	0.978	1	1.11	0.919	1.02	0.934	0.961	1.01	1.07	0.963	0.522	0.558	0.553	0.393	1.04	0.851	1.05	0.797	0.422
201T	0.713	0.802	0.963	0.979	0.887	1.04	0.972	0.958	0.982	0.976	0.78	0.89	0.938	0.854	0.985	1.04	1.03	0.991	0.48
